Experimental data: patent publication US6906098B2, “Mixed steroidal 1,2,4,5-tetraoxane compounds and methods of making and using thereof” (priority 2002, dated 2005)
Converted amounts (≈) assume the structure as drawn. “And” between values parts separate entries of the source, which are not always exact repeats. Equal values may be shown once. Read-outs that look alike come from different tables or passages of the source.

Legend:
[1] = test system: Plasmodium falciparum chloroquine-susceptible strain D6; experiment: In vitro antimalarial drug susceptibility assay (radiolabeled hypoxanthine incorporation), strain D6; type: cell-based; conditions: for IC50: Plasmodium falciparum, D6, 66 h, read-out: Strain D6 IC50, growth inhibition, chloroquine-susceptible strain D6, 66 h incubation; for Strain D6 IC50: growth inhibition, chloroquine-susceptible strain D6, 66 h incubation
[2] = test system: Plasmodium falciparum chloroquine-resistant strain W2; experiment: microbe, parasite or virus in culture; type: cell-based; conditions: for IC50: Plasmodium falciparum, W2, 66 h, read-out: Strain W2 IC50, growth inhibition, chloroquine-resistant strain W2, 66 h incubation; for Strain W2 IC50: growth inhibition, chloroquine-resistant strain W2, 66 h incubation
[3] = test system: D6 and W2 P. falciparum clones; type: cell-based, Plasmodium falciparum; conditions: for Resistance Index: IC50 (W2)/IC50 (D6) ratio; for antimalarial activity in words: D6 and W2 clones, Table 2
[4] = test system: Mycobacterium tuberculosis H37Rv (ATCC 27294); experiment: Primary screen, Microplate Alamar Blue Assay (MABA), percent inhibition; type: cell-based; conditions: primary screening at 6.25 μg/ml; for inhibition at 6.25 µg/mL: Mycobacterium tuberculosis
Protocol: (§1) The activity of the compounds of the present invention against Mycobacterium tuberculosis was determined using the following assays conducted by the National Institute of Allergy and Infectious Diseases (NIAID) supports a TB drug acquisition and screening program, the TAACF.
To determine the percent inhibition the following assay was conducted. Primary screening was conducted at 6.25 μg/ml (or the molar equivalent of highest molecular weight compound in a given series of congeners) against Mycobacterium tuberculosis H37Rv (ATCC 27294) in BACTEC 12B medium using the Microplate Alamar Blue Assay (MABA). See Collins, L. and S. G. Franzblau. 1997. Microplate alamar blue assay versus BACTEC 460 system for high-throughput screening of compounds against Mycobacterium tuberculosis and Mycobacterium avium. Antimicrob Agents Chemother 41:1004-9, which is herein incorporated by reference.
Minimum compound requirements: 1.0 mg.

M. tuberculosis H37Rv = experiment: Minimum inhibitory concentration (MIC) in the MABA; type: cell-based, Mycobacterium tuberculosis
Protocol: as §1
2. Minimum Inhibitory Concentration (MIC)
The MIC is defined as the lowest concentration effecting a reduction in fluorescence of 90% relative to controls. Minimum compound requirements: 1.0 mg.

[5] = Table 5, Alamar assay, read-out: % Inhib
[6] = Mycobacterium tuberculosis, H37RV, Table 5, Alamar assay, M. tuberculosis H37Rv, read-out: MIC
[7] = Table 5, Alamar assay, M. tuberculosis H37Rv

## CCCNC(=O)CCC(C)[C@H]1CCC2C3C(C[C@H](OC(C)=O)[C@@]21C)[C@@]1(C)CCC2(C[C@H]1C[C@H]3OC(C)=O)OOC1(CCCCC1C)OO2 (stereo partly drawn) [16/1C25, N-(n-Propyl)-7α,12α-diacetoxy-5β-cholan-24-amide-3-spiro-6′-(1′,2′,4′,5′-tetraoxacyclohexane)-3′-spiro-1″-(2″-methyl)cyclohexane]
[1]
  IC50: 0.00889 µg/mL (≈ 0.0132 µM)
[2]
  IC50: 0.00628 µg/mL (≈ 0.00929 µM)
[3]
  Resistance Index: 0.71
[4]; [5]
  inhibition at 6.25 µg/mL: 87%
M. tuberculosis H37Rv; [6]
  MIC: > 6.25 µg/mL

## CC(=O)O[C@H]1CC2C(C3CC[C@H](C(C)CCC(=O)O)[C@]31C)[C@H](OC(C)=O)C[C@@H]1CC3(CC[C@]21C)OOC1(CCC(C)CC1)OO3 (stereo partly shown) [9h/1C18]
[1]
  Strain D6 IC50: 0.01974 µg/mL
[2]
  Strain W2 IC50: 0.01126 µg/mL
[3]
  Resistance Index: 0.57
[4]; Table 5, Alamar assay
  % Inhib: 34%
M. tuberculosis H37Rv; [7]
  MIC: >6.25 µg/mL

## COC(=O)CCC(C)[C@H]1CCC2C3C(C[C@H](OC(C)=O)[C@@]21C)[C@@]1(C)CCC2(C[C@H]1C[C@H]3OC(C)=O)OOC1(CC(C)CCC1C(C)C)OO2 (stereo partly drawn) [8f/1B10, Methyl 7α,12α-diacetoxy-5β-cholan-24-oate-3-spiro-6′-(1′,2′,4′,5′-tetraoxacyclohexane)-3′-spiro-1″-(−)-menthane]
[1]
  IC50: 0.107 µg/mL (≈ 0.154 µM)
[2]
  IC50: 0.0506 µg/mL (≈ 0.0732 µM)
[3]
  Resistance Index: 0.47
[4]; [5]
  inhibition at 6.25 µg/mL: 0%
M. tuberculosis H37Rv; [6]
  MIC: > 6.25 µg/mL

## COC(=O)CCC(C)[C@H]1CCC2C3C(C[C@H](OC(C)=O)[C@@]21C)[C@@]1(C)CCC2(C[C@H]1C[C@H]3OC(C)=O)OOC1(CCC(C)CC1)OO2 (mixture of isomers) [8h/1B08b, Methyl 7α,12α-diacetoxy-5β-cholan-24-oate-3-spiro-6′-(1′,2′,4′,5′-tetraoxacyclohexane)-3′-spiro-1″-((4″R)- and (4″S)-methyl)cyclohexane]
[1]
  Strain D6 IC50: 0.01599 µg/mL
[2]
  Strain W2 IC50: 0.00854 µg/mL
[3]
  Resistance Index: 0.53
[4]; Table 5, Alamar assay
  % Inhib: 38%
M. tuberculosis H37Rv; [7]
  MIC: >6.25 µg/mL

## CCC1CCC2(CC1)OOC1(CC[C@]3(C)C4C[C@H](OC(C)=O)[C@@]5(C)C(CC[C@@H]5C(C)CCC(=O)OC)C4[C@H](OC(C)=O)C[C@@H]3C1)OO2 (single isomer, unassigned) [8i/1B13a, Methyl 7α,12α-diacetoxy-5β-cholan-24-oate-3-spiro-6′-(1′,2′,4′,5′-tetraoxacyclohexane)-3′-spiro-1″-((4″R or S)- and (4″S or R)-ethyl)cyclohexane]
[1]
  Strain D6 IC50: 0.00446 µg/mL
[2]
  IC50: 0.00939 µg/mL (≈ 0.0142 µM)
[3]
  Resistance Index: 2.10
[4]; [5]
  inhibition at 6.25 µg/mL: 62%
M. tuberculosis H37Rv; [6]
  MIC: > 6.25 µg/mL

## CCC1CCC2(CC1)OOC1(CC[C@]3(C)C4C[C@H](OC(C)=O)[C@@]5(C)C(CC[C@@H]5C(C)CCC(N)=O)C4[C@H](OC(C)=O)C[C@@H]3C1)OO2 (single isomer, unassigned) [29/1C40, 7α,12α-Diacetoxy-5β-cholan-24-amide-3-spiro-6′-(1′,2′,4′,5′-tetraoxacyclohexane)-3′-spiro-1″-((4″S or R)-ethyl)cyclohexane]
[1]
  Strain D6 IC50: 0.02012 µg/mL
[2]
  Strain W2 IC50: 0.00811 µg/mL
[3]
  Resistance Index: 0.40
[4]; Table 5, Alamar assay
  % Inhib: 100%
M. tuberculosis H37Rv; [7]
  MIC: 3.13 µg/mL (≈ 4.83 µM)

## CCC1CCC2(CC1)OOC1(CC[C@]3(C)C4C[C@H](OC(C)=O)[C@@]5(C)C(CC[C@@H]5C(C)CCC(=O)OC)C4[C@H](OC(C)=O)C[C@@H]3C1)OO2 (single isomer, unassigned) [8j/1B13b, Methyl 7α,12α-diacetoxy-5β-cholan-24-oate-3-spiro-6′-(1′,2′,4′,5′-tetraoxacyclohexane)-3′-spiro-1″-((4″R or S)- and (4″S or R)-ethyl)cyclohexane]
[1]
  Strain D6 IC50: 0.01173 µg/mL
[2]
  Strain W2 IC50: 0.01876 µg/mL
[3]
  Resistance Index: 1.60
[4]; Table 5, Alamar assay
  % Inhib: 65%
M. tuberculosis H37Rv; [7]
  MIC: >6.25 µg/mL

## CCNC(=O)CCC(C)[C@H]1CCC2C3C(C[C@H](OC(C)=O)[C@@]21C)[C@@]1(C)CCC2(C[C@H]1C[C@H]3OC(C)=O)OOC1(CCC(C)CC1)OO2 (stereo partly drawn) [23/1C32, N-Ethyl-7α,12α-diacetoxy-5β-cholan-24-amide-3-spiro-6′-(1′,2′,4′,5′-tetraoxacyclohexane)-3′-spiro-1″-((4″S)-methyl)cyclohexane]
[1]
  Strain D6 IC50: 0.01032 µg/mL
[2]
  Strain W2 IC50: 0.00657 µg/mL
[3]
  Resistance Index: 0.64
[4]; Table 5, Alamar assay
  % Inhib: 21%
M. tuberculosis H37Rv; [7]
  MIC: >6.25 µg/mL

## CCCNC(=O)CCC(C)[C@H]1CCC2C3C(C[C@H](OC(C)=O)[C@@]21C)[C@@]1(C)CCC2(C[C@H]1C[C@H]3OC(C)=O)OOC1(CCC(C)CC1)OO2 (stereo partly drawn) [24/1C33, N-(n-Propyl)-7α,12α-diacetoxy-5β-cholan-24-amide-3-spiro-6′-(1′,2′,4′,5′-tetraoxacyclohexane)-3′-spiro-1″-((4″S)-methyl)cyclohexane]
[1]
  Strain D6 IC50: 0.05741 µg/mL
[2]
  Strain W2 IC50: 0.05611 µg/mL
[3]
  antimalarial activity in words: inactive
  Resistance Index: 0.98
[4]; Table 5, Alamar assay
  % Inhib: 0%
M. tuberculosis H37Rv; [7]
  MIC: >6.25 µg/mL

## CC(=O)O[C@H]1CC2C(C3CC[C@H](C(C)CCC(=O)O)[C@]31C)[C@H](OC(C)=O)C[C@@H]1CC3(CC[C@]21C)OOC1(CCC(C)CC1)OO3 (stereo partly shown) [9g/1C17]
[1]
  Strain D6 IC50: 0.00097 µg/mL
[2]
  Strain W2 IC50: 0.00062 µg/mL
[3]
  Resistance Index: 0.64
[4]; Table 3, H37Rv, read-out: Inhibition (%)
  inhibition at 6.25 µg/mL: 21%
[4]; [5]
  inhibition at 6.25 µg/mL: 21%
M. tuberculosis H37Rv; Mycobacterium tuberculosis, H37RV, Table 3, H37Rv, read-out: MIC
  MIC: > 6.25 µg/mL and > 9.84 µM
M. tuberculosis H37Rv; [6]
  MIC: > 6.25 µg/mL

## CC(=O)O[C@H]1CC2C(C3CC[C@H](C(C)CCC(=O)O)[C@]31C)[C@H](OC(C)=O)C[C@@H]1CC3(CC[C@]21C)OOC1(CCC(c2ccccc2)CC1)OO3 (single isomer, unassigned) [Compound 1C49, 7α,12α-Diacetoxy-5β-cholan-24-oic acid-3-spiro-6′-(1′,2′,4′,5′-tetraoxacyclohexane)-3′-spiro-1″-((4″S or R)-phenyl)cyclohexane]
[1]
  Strain D6 IC50: 0.05424 µg/mL
[2]
  Strain W2 IC50: 0.04385 µg/mL
[3]
  Resistance Index: 0.81
[4]; Table 3, H37Rv
  Inhibition (%): 89%
[4]; Table 5, Alamar assay
  % Inhib: 89%
M. tuberculosis H37Rv; Table 3, H37Rv
  MIC: >6.25 µg/mL
M. tuberculosis H37Rv; [7]
  MIC: >6.25 µg/mL

## CC(=O)O[C@H]1CC2C(C3CC[C@H](C(C)CCC(=O)O)[C@]31C)[C@H](OC(C)=O)C[C@@H]1CC3(CC[C@]21C)OOC1(CCCCC1)OO3 (stereo partly drawn) [9b/1C15, 70α,12α-Diacetoxy-5β-cholan-24-oic acid-3-spiro-6′-(1′,2′,4′,5′-tetraoxacyclohexane)-3′-spirocyclohexane]
[1]
  IC50: 0.019 µg/mL (≈ 0.0306 µM)
[2]
  IC50: 0.0119 µg/mL (≈ 0.0192 µM)
[3]
  Resistance Index: 0.63
[4]; [5]
  inhibition at 6.25 µg/mL: 33%
M. tuberculosis H37Rv; [6]
  MIC: > 6.25 µg/mL

## CCCNC(=O)CCC(C)[C@H]1CCC2C3C(C[C@H](OC(C)=O)[C@@]21C)[C@@]1(C)CCC2(C[C@H]1C[C@H]3OC(C)=O)OOC1(CCC(CC)CC1)OO2 (single isomer, unassigned) [32/1C43, N-(n-Propyl)-7α,12α-Diacetoxy-5β-cholan-24-amide-3-spiro-6′-(1′,2′,4′,5′-tetraoxacyclohexane)-3′-spiro-1″-((4″S or R)-ethyl)cyclohexane]
[1]
  Strain D6 IC50: 0.0622 µg/mL
[2]
  Strain W2 IC50: 0.08464 µg/mL
[3]
  antimalarial activity in words: inactive
  Resistance Index: 1.36
[4]; Table 5, Alamar assay
  % Inhib: 71%
M. tuberculosis H37Rv; [7]
  MIC: >6.25 µg/mL

## COC(=O)CCC(C)[C@H]1CCC2C3C(C[C@H](OC(C)=O)[C@@]21C)[C@@]1(C)CCC2(C[C@H]1C[C@H]3OC(C)=O)OOC1(CCC(C(C)(C)C)CC1)OO2 (single isomer, unassigned) [8l/1B09b, Methyl 7α,12α-diacetoxy-5β-cholan-24-oate-3-spiro-6′-(1′,2′,4′,5′-tetraoxacyclohexane)-3′-spiro-1″-(4″R or S)- and (4″S or R)-t-butyl)cyclohexane]
[1]
  Strain D6 IC50: 0.03584 µg/mL
[2]
  Strain W2 IC50: 0.01919 µg/mL
[3]
  Resistance Index: 0.54
[3]; antimalarial activity versus literature tetraoxane
  times more active than bis(1,1-dioxy-4-tert-butylcyclohexane): ca. 3.7 times
[4]; Table 5, Alamar assay
  % Inhib: 0%
M. tuberculosis H37Rv; [7]
  MIC: >6.25 µg/mL

## COC(=O)CCC(C)[C@H]1CCC2C3C(C[C@H](OC(C)=O)[C@@]21C)[C@@]1(C)CCC2(C[C@H]1C[C@H]3OC(C)=O)OOC1(CCC(C(C)(C)C)CC1)OO2 (single isomer, unassigned) [8k/1B09a, Methyl 7α,12α-diacetoxy-5β-cholan-24-oate-3-spiro-6′-(1′,2′,4′,5′-tetraoxacyclohexane)-3′-spiro-1″-(4″R or S)- and (4″S or R)-t-butyl)cyclohexane]
[1]
  Strain D6 IC50: 0.07426 µg/mL
[2]
  IC50: 0.0364 µg/mL (≈ 0.0527 µM)
[3]
  Resistance Index: 0.49
[4]; Table 5, Alamar assay, listed as 8g 1B09a
  % Inhib: 32%
M. tuberculosis H37Rv; Mycobacterium tuberculosis, H37RV, Table 5, Alamar assay, M. tuberculosis H37Rv
  MIC: > 6.25 µg/mL
